{
  "source": "ChEMBL document CHEMBL4024706",
  "about": "(Eur J Med Chem, 2017)",
  "key": {"[1]": {"biological_target": "Angiopoietin-1 receptor (Homo sapiens) (UniProt Q02763)", "sequence (Q02763 whole entry, the tested form may be a part)": "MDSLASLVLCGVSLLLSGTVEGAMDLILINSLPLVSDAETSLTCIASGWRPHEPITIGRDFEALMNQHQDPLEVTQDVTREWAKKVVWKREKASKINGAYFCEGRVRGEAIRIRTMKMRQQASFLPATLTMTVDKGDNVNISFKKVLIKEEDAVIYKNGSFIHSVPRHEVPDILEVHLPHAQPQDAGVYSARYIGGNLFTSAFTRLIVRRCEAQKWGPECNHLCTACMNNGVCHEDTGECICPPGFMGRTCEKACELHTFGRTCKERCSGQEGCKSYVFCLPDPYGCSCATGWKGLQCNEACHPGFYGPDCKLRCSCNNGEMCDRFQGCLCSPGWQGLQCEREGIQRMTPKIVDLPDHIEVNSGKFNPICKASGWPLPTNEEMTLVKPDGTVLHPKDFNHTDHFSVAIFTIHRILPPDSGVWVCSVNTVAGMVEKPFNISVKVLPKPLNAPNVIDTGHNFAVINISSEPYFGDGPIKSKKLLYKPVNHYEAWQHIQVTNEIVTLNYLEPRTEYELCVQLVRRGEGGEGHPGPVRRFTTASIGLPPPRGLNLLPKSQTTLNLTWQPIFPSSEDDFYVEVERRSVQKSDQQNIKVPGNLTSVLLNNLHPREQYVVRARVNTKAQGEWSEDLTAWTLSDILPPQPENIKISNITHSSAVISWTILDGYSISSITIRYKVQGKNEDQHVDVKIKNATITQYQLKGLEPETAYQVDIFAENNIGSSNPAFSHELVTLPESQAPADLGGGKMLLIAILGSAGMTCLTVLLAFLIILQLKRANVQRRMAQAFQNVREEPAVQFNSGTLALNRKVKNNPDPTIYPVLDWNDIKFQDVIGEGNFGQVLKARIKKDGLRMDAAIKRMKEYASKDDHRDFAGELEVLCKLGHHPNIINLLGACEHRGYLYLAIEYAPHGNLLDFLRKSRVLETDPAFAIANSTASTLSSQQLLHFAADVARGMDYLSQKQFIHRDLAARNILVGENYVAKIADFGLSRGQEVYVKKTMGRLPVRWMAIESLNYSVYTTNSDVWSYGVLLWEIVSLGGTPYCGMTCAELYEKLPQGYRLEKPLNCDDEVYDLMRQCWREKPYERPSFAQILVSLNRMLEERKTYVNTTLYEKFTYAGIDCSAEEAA", "experiment": "Inhibition of wild-type human partial length TIE2 (N804 to T1112 residues) expressed in bacterial expression system assessed as residual activity at 1 uM by Kinomescan method relative to control"}, "[2]": {"tested_on": "SU-DHL-2", "experiment": "Growth inhibition of human SU-DHL-2 cells", "type": "functional", "details": "Homo sapiens, SU-DHL-2"}, "[3]": {"biological_target": "Cyclin-dependent kinase 13 (Homo sapiens) (UniProt Q14004)", "experiment": "Inhibition of wild-type human partial length CDC2L5 (H675 to S1054 residues) expressed in mammalian expression system assessed as residual activity at 1 uM by Kinomescan method relative to control"}, "[4]": {"biological_target": "Receptor-interacting serine/threonine-protein kinase 1 (Homo sapiens) (UniProt Q13546)", "sequence (Q13546 whole entry, the tested form may be a part)": "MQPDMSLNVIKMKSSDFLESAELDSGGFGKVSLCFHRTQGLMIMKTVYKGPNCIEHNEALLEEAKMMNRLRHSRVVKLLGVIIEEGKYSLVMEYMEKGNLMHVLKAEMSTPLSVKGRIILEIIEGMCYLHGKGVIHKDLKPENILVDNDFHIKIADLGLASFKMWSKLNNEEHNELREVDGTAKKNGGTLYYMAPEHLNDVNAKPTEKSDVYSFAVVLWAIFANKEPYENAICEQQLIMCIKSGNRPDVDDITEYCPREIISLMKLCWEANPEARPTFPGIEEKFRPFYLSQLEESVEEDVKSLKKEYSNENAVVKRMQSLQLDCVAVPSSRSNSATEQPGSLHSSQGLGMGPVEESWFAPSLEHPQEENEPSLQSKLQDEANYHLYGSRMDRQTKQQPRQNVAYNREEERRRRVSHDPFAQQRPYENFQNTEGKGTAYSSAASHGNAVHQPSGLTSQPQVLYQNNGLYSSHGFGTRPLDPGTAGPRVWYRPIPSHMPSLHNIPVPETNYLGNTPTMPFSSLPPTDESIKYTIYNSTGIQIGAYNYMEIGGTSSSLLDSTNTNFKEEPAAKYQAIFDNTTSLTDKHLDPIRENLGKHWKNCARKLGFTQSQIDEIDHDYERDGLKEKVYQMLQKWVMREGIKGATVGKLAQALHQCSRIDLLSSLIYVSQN", "experiment": "Inhibition of wild-type human partial length RIPK1 (M1 to K305 residues) expressed in bacterial expression system assessed as residual activity at 1 uM by Kinomescan method relative to control"}, "[5]": {"biological_target": "Serine/threonine-protein kinase TBK1 (Homo sapiens) (UniProt Q9UHD2)", "experiment": "Inhibition of wild-type human full length TBK1 (M1 to L729 residues) expressed in mammalian expression system assessed as residual activity at 1 uM by Kinomescan method relative to control"}, "[6]": {"biological_target": "Mitogen-activated protein kinase 10 (Homo sapiens) (UniProt P53779)", "sequence (P53779 whole entry, the tested form may be a part)": "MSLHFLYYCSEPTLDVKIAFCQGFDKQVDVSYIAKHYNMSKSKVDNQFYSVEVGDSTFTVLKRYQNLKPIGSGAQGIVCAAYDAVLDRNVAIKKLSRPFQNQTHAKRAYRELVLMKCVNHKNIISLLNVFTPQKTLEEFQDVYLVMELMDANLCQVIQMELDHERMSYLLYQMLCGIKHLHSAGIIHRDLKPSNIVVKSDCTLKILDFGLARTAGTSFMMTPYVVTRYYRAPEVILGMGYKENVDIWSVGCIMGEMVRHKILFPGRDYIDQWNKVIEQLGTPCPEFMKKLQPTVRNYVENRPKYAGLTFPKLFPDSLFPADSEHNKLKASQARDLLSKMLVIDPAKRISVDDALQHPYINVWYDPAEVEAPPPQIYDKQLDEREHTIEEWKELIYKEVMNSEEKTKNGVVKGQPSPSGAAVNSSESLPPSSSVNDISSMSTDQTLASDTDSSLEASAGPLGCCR", "experiment": "Inhibition of wild-type human partial length JNK3 (V28 to Q422 residues) expressed in mammalian expression system assessed as residual activity at 1 uM by Kinomescan method relative to control"}, "[7]": {"tested_on": "Phosphatidylinositol 4,5-bisphosphate 3-kinase catalytic subunit alpha isoform (Homo sapiens), P42336 [E542K]", "experiment": "Inhibition of human partial length PIK3CA E542K mutant (R108 to N1068 residues) expressed in mammalian expression system assessed as residual activity at 1 uM by Kinomescan method relative to control"}, "[8]": {"biological_target": "Serine/threonine-protein kinase 32C (Homo sapiens) (UniProt Q86UX6)", "experiment": "Inhibition of wild-type human partial length YANK3 (M68 to G486 residues) expressed in bacterial expression system assessed as residual activity at 1 uM by Kinomescan method relative to control"}, "[9]": {"tested_on": "Phosphatidylinositol 4,5-bisphosphate 3-kinase catalytic subunit alpha isoform (Homo sapiens), P42336 [E545A]", "sequence (P42336 whole entry E545A, the tested form may be a part, canonical isoform)": "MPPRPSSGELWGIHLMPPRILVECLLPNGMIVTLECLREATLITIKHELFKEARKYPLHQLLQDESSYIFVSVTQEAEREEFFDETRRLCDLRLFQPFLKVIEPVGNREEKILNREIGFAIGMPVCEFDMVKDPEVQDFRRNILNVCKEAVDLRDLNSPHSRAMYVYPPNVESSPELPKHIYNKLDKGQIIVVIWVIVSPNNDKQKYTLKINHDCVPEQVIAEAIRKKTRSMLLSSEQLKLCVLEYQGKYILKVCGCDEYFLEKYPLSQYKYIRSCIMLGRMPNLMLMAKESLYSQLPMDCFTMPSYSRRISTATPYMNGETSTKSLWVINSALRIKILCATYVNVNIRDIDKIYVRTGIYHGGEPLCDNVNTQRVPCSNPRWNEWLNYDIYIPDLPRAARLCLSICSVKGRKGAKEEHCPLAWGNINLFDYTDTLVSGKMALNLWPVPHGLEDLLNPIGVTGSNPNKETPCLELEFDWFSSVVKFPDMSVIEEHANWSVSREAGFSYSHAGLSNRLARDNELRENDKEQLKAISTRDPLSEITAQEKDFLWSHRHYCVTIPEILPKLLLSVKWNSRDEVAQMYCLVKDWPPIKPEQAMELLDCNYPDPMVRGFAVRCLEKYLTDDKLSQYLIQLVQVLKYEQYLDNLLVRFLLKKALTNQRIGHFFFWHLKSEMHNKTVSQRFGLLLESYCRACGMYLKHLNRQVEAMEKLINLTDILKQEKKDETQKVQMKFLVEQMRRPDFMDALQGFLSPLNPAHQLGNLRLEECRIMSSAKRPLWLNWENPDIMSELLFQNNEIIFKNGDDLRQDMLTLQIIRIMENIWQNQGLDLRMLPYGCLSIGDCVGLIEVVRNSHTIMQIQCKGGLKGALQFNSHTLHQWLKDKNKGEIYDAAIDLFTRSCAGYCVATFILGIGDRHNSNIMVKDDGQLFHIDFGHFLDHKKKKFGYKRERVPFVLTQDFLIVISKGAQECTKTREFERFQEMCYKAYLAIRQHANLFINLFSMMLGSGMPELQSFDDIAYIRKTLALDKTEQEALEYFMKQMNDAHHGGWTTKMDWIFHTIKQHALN", "experiment": "Inhibition of human partial length PIK3CA E545A mutant (R108 to N1068 residues) expressed in mammalian expression system assessed as residual activity at 1 uM by Kinomescan method relative to control"}, "[10]": {"tested_on": "Mast/stem cell growth factor receptor Kit (Homo sapiens), P10721 [D816V]", "experiment": "Inhibition of human partial length KIT D816V mutant (I571 to D952 residues) expressed in bacterial expression system assessed as residual activity at 1 uM by Kinomescan method relative to control"}, "[11]": {"biological_target": "Serine/threonine-protein kinase Chk1 (Homo sapiens) (UniProt O14757)", "experiment": "Inhibition of wild-type human partial length CHEK1 (M1 to G289 residues) expressed in bacterial expression system assessed as residual activity at 1 uM by Kinomescan method relative to control"}, "[12]": {"tested_on": "Phosphatidylinositol 4,5-bisphosphate 3-kinase catalytic subunit alpha isoform (Homo sapiens), P42336 [M1043I]", "experiment": "Inhibition of human partial length PIK3CA M1043I mutant (R108 to N1068 residues) expressed in mammalian expression system assessed as residual activity at 1 uM by Kinomescan method relative to control"}, "[13]": {"biological_target": "SRSF protein kinase 2 (Homo sapiens) (UniProt P78362)", "experiment": "Inhibition of wild-type human full length SRPK2 (M1 to S686 residues) expressed in bacterial expression system assessed as residual activity at 1 uM by Kinomescan method relative to control"}, "[14]": {"biological_target": "Mitogen-activated protein kinase 7 (Homo sapiens) (UniProt Q13164)", "sequence (Q13164 2-816 limits assumed)": "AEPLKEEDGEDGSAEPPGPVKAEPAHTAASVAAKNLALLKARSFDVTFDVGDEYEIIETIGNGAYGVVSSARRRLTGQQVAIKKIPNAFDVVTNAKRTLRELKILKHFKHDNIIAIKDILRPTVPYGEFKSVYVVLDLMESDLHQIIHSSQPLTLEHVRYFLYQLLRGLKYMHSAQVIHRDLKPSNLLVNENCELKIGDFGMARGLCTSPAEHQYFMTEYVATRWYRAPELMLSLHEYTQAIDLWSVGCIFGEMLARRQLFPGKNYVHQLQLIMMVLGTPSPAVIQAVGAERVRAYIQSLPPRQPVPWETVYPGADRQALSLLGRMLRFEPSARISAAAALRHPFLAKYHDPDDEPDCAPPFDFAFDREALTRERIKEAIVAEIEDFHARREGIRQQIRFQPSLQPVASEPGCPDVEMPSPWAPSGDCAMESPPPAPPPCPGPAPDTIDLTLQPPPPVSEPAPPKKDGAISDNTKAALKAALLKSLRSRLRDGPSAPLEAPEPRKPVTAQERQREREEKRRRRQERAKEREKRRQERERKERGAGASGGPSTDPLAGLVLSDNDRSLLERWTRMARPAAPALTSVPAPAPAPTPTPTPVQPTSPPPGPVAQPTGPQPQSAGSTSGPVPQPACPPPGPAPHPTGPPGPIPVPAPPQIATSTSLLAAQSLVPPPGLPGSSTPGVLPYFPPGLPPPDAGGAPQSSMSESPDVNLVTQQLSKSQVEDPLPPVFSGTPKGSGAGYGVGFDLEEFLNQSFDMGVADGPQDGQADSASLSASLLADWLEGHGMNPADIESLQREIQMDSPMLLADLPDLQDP", "experiment": "Inhibition of wild-type human partial length ERK5 (M1 to A409 residues) expressed in bacterial expression system assessed as residual activity at 1 uM by Kinomescan method relative to control"}, "[15]": {"tested_on": "Tyrosine-protein kinase ABL1 (Homo sapiens), P00519 [F317L]", "experiment": "Inhibition of human non-phosphorylated ABL1 F317L mutant (S229 to K512 residues) expressed in mammalian expression system assessed as residual activity at 1 uM by Kinomescan method relative to control"}, "[16]": {"biological_target": "Activin receptor type-1B (Homo sapiens) (UniProt P36896)", "sequence (P36896 whole entry, the tested form may be a part)": "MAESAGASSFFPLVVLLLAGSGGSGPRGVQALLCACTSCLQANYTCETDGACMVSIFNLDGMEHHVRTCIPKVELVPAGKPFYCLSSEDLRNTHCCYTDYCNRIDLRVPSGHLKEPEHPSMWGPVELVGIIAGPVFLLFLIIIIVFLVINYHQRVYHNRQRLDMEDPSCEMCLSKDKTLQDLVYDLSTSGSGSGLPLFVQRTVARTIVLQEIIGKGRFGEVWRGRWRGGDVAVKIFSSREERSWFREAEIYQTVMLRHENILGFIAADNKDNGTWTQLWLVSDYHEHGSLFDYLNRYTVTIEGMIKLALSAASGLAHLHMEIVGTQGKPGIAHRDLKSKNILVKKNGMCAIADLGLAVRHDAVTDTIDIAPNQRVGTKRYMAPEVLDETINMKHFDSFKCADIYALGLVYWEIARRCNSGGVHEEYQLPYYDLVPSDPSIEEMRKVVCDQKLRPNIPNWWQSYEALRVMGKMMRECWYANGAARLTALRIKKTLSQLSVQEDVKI", "experiment": "Inhibition of wild-type human ACVR1B (S187 to I505 residues) expressed in bacterial expression system assessed as residual activity at 1 uM by Kinomescan method relative to control"}, "[17]": {"biological_target": "Non-receptor tyrosine-protein kinase TNK1 (Homo sapiens) (UniProt Q13470)", "experiment": "Inhibition of wild-type human full length TNK1 (M1 to P661 residues) expressed in bacterial expression system assessed as residual activity at 1 uM by Kinomescan method relative to control"}, "[18]": {"tested_on": "Epidermal growth factor receptor (Homo sapiens), P00533 [G719C]", "experiment": "Inhibition of human partial length EGFR G719C mutant (R669 to V1011 residues) expressed in bacterial expression system assessed as residual activity at 1 uM by Kinomescan method relative to control"}, "[19]": {"biological_target": "Serine/threonine-protein kinase tousled-like 1 (Homo sapiens) (UniProt Q9UKI8)", "experiment": "Inhibition of wild-type human partial length TLK1 (K447 to A754 residues) expressed in bacterial expression system assessed as residual activity at 1 uM by Kinomescan method relative to control"}, "[20]": {"biological_target": "Mitogen-activated protein kinase 9 (Homo sapiens) (UniProt P45984)", "experiment": "Inhibition of wild-type human full length JNK2 (M1 to Q382 residues) expressed in mammalian expression system assessed as residual activity at 1 uM by Kinomescan method relative to control"}, "[21]": {"biological_target": "Homeodomain-interacting protein kinase 3 (Homo sapiens) (UniProt Q9H422)", "experiment": "Inhibition of wild-type human partial length HIPK3 (M153 to N562 residues) expressed in mammalian expression system assessed as residual activity at 1 uM by Kinomescan method relative to control"}, "[22]": {"biological_target": "Casein kinase I isoform alpha (Homo sapiens) (UniProt P48729)", "sequence (P48729 2-337 limits assumed)": "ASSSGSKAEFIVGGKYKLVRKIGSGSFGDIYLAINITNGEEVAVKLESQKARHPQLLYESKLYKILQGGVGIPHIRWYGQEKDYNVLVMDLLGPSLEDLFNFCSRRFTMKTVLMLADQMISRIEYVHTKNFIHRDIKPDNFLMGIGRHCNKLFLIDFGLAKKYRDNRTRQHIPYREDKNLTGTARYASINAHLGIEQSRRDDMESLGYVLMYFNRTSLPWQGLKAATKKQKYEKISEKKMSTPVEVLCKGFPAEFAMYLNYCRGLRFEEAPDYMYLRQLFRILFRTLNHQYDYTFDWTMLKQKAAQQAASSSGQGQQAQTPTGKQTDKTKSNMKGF", "experiment": "Inhibition of wild-type human partial length CSNK1A1 (M1 to L450 residues) expressed in mammalian expression system assessed as residual activity at 1 uM by Kinomescan method relative to control"}, "[23]": {"tested_on": "Epidermal growth factor receptor (Homo sapiens), P00533 [G719S]", "experiment": "Inhibition of human partial length EGFR G719S mutant (R669 to V1011 residues) expressed in bacterial expression system assessed as residual activity at 1 uM by Kinomescan method relative to control"}, "[24]": {"tested_on": "Receptor-type tyrosine-protein kinase FLT3 (Homo sapiens), P36888 [R834Q]", "experiment": "Inhibition of human partial length FLT3 R834Q mutant (V592 to Y969 residues) expressed in mammalian expression system assessed as residual activity at 1 uM by Kinomescan method relative to control"}, "[25]": {"biological_target": "STE20/SPS1-related proline-alanine-rich protein kinase (Homo sapiens) (UniProt Q9UEW8)", "experiment": "Inhibition of wild-type human partial length STK39 (P43 to I357 residues) expressed in mammalian expression system assessed as residual activity at 1 uM by Kinomescan method relative to control"}},
  "data": [
    {"smiles": "C=CC(=O)Nc1cc(Nc2cc(-c3cccc(NC(=O)c4ccc(C(C)(C)C)cc4)c3C)cn(C)c2=O)ccc1C(=O)N1CCOCC1", "values": [
      {"measurement": "Activity", "setting": "[1]", "value": 100, "unit": "%"},
      {"measurement": "GI50", "setting": "[2]", "value": 3000, "unit": "nM"},
      {"measurement": "Activity", "setting": "[3]", "value": 100, "unit": "%"},
      {"measurement": "Activity", "setting": "[4]", "value": 100, "unit": "%"},
      {"measurement": "Activity", "setting": "[5]", "value": 100, "unit": "%"},
      {"measurement": "Activity", "setting": "[6]", "value": 91, "unit": "%"},
      {"measurement": "Activity", "setting": "[7]", "value": 94, "unit": "%"},
      {"measurement": "Activity", "setting": "[8]", "value": 97, "unit": "%"},
      {"measurement": "Activity", "setting": "[9]", "value": 96, "unit": "%"},
      {"measurement": "Activity", "setting": "[10]", "value": 92, "unit": "%"},
      {"measurement": "Activity", "setting": "[11]", "value": 100, "unit": "%"},
      {"measurement": "Activity", "setting": "[12]", "value": 100, "unit": "%"},
      {"measurement": "Activity", "setting": "[13]", "value": 94, "unit": "%"},
      {"measurement": "Activity", "setting": "[14]", "value": 99, "unit": "%"},
      {"measurement": "Activity", "setting": "[15]", "value": 88, "unit": "%"},
      {"measurement": "Activity", "setting": "[16]", "value": 100, "unit": "%"},
      {"measurement": "Activity", "setting": "[17]", "value": 92, "unit": "%"},
      {"measurement": "Activity", "setting": "[18]", "value": 100, "unit": "%"},
      {"measurement": "Activity", "setting": "[19]", "value": 99, "unit": "%"},
      {"measurement": "Activity", "setting": "[20]", "value": 98, "unit": "%"},
      {"measurement": "Activity", "setting": "[21]", "value": 100, "unit": "%"},
      {"measurement": "Activity", "setting": "[22]", "value": 100, "unit": "%"},
      {"measurement": "Activity", "setting": "[23]", "value": 100, "unit": "%"},
      {"measurement": "Activity", "setting": "[24]", "value": 91, "unit": "%"},
      {"measurement": "Activity", "setting": "[25]", "value": 70, "unit": "%"}
    ]}
  ]
}
